Test results from patent US20080009418A1, “Selective Inhibitors” (Alchemia LTD., priority 2004, published 2008).

What was measured:
Human δ-opioid (DOP) = target: T1, Human δ-opioid (DOP) (Homo sapiens, UniProt P41143); assay: Radioligand binding, human δ-opioid (DOP) membranes, FlashPlate, [3H]-Bremazocine; conditions: compound at 10 μM; for A1: inhibition of radioligand binding / A1 radioligand binding, percentage inhibition: [3H]-Bremazocine; for A1: inhibition of radioligand binding: human DOP membranes
T1 construct: purchased Perkin Elmer Biosignal
T1 sequence (P41143 whole entry): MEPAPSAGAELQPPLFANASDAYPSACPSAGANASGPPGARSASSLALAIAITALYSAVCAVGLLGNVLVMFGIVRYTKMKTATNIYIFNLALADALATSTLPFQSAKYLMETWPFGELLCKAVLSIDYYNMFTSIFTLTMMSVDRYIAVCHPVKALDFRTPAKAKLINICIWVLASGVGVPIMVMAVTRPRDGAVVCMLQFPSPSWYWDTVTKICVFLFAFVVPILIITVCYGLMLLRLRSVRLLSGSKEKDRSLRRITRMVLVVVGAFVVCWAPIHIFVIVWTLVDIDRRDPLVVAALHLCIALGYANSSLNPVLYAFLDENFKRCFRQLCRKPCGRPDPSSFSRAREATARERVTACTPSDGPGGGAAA
How it was run: (§1)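 Cloned human receptor membranes were coated onto FlashPlate wells and incubated with radioligand and compound (added from a 0.5 mM DMSO daughter plate) for 1 hour at room temperature in the dark. Scintillation counting gave percent inhibition, with DMSO defining total and reference ligand defining non-specific binding.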

Human κ-Opioid (KOP) = target: T2, Human κ-Opioid (KOP) (Homo sapiens, UniProt P41145); assay: Radioligand binding, human κ-opioid (KOP) membranes, filtration, [3H]-Diprenorphine; conditions: compound at 10 μM; for A2: inhibition of radioligand binding / A2 radioligand binding, percentage inhibition: [3H]-Diprenorphine; for A2: inhibition of radioligand binding: human KOP membranes
T2 construct: purchased Perkin Elmer Biosignal
T2 sequence (P41145 whole entry): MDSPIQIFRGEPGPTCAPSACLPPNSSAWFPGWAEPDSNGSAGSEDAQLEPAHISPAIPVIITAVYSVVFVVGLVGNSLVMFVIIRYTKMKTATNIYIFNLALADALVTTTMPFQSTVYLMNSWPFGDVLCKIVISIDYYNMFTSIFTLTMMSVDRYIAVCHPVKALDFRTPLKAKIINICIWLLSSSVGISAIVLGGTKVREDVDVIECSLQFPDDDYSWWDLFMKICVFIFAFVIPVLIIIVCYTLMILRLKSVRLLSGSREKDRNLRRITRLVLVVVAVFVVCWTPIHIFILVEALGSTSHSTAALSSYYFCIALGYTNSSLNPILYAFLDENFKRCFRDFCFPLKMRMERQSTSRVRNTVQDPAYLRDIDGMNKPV
How it was run: (§2)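 Membranes from cloned human receptors were incubated with compound and radioligand for 1 hour at room temperature. Bound ligand was collected on 0.3% PEI-soaked filters, washed with cold 50 mM Tris-HCl pH 7.4, and counted by scintillation. Percent inhibition was computed against DMSO totals and reference-ligand nonspecific wells.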

Human Melanocortin (MC3) = target: T3, Human Melanocortin (MC3) (Homo sapiens, UniProt P41968); assay: Radioligand binding, human melanocortin MC3 membranes, FlashPlate, [125I]-NDP-αMSH; conditions: compound at 10 μM; for A3: inhibition of radioligand binding / A3 radioligand binding, percentage inhibition: [125I]-NDP-αMSH; for A3: inhibition of radioligand binding: human MC3 membranes
T3 construct: purchased Perkin Elmer Biosignal
T3 sequence (P41968 whole entry): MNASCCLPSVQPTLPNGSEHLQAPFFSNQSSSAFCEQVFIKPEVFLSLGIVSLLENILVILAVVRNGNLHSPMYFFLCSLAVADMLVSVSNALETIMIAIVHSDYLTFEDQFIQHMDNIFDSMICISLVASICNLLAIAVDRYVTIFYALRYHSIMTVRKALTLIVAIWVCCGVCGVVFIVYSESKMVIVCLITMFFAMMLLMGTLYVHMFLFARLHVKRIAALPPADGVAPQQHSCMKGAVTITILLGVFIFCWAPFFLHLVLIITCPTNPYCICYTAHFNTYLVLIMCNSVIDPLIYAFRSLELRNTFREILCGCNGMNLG
How it was run: as §1

Human Melanocortin (MC4) = target: T4, Human Melanocortin (MC4) (Homo sapiens, UniProt P32245); assay: Radioligand binding, human melanocortin MC4 membranes, FlashPlate, [125I]-NDP-αMSH; conditions: compound at 10 μM; for A4: inhibition of radioligand binding / A4 radioligand binding, percentage inhibition: [125I]-NDP-αMSH; for A4: inhibition of radioligand binding: human MC4 membranes
T4 construct: purchased Perkin Elmer Biosignal
T4 sequence (P32245 whole entry): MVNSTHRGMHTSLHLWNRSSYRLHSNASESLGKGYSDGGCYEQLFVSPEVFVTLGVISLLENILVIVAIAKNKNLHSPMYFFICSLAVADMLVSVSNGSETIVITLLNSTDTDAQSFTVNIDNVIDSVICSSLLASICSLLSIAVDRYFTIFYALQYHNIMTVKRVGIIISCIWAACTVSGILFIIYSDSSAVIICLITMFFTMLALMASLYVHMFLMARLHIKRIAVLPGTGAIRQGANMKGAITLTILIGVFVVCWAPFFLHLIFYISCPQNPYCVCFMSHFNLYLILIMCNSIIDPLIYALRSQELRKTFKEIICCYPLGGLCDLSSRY
How it was run: as §1

Human melanocortin (MC5) = target: T5, Human melanocortin (MC5) (Homo sapiens, UniProt P33032); assay: Radioligand binding, human melanocortin MC5 membranes, FlashPlate, [125I]-NDP-αMSH; conditions: compound at 10 μM; for A5: inhibition of radioligand binding / A5 radioligand binding, percentage inhibition: [125I]-NDP-αMSH; for A5: inhibition of radioligand binding: human MC5 membranes
T5 construct: purchased Perkin Elmer Biosignal
T5 sequence (P33032 whole entry): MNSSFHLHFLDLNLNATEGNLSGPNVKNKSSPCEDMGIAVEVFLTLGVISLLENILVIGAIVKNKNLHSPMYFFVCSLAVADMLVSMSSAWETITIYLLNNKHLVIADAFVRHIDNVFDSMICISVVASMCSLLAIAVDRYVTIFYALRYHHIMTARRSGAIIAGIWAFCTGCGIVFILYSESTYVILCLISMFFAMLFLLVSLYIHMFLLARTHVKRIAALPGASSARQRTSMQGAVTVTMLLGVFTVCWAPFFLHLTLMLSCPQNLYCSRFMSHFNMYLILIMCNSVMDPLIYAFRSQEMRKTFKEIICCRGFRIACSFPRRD
How it was run: as §1

[1] = target: T6, Human melanin-concentrating hormone (MCH1) (Homo sapiens, UniProt Q99705); assay: Radioligand binding, human melanin-concentrating hormone MCH1 membranes, FlashPlate, [125I]-S36057; conditions: compound at 10 μM; for A6: inhibition of radioligand binding: [125I]-S36057, human MCH1 membranes; for A6 radioligand binding, percentage inhibition: [125I]-S36057
T6 construct: purchased Perkin Elmer Biosignal
T6 sequence (Q99705 whole entry): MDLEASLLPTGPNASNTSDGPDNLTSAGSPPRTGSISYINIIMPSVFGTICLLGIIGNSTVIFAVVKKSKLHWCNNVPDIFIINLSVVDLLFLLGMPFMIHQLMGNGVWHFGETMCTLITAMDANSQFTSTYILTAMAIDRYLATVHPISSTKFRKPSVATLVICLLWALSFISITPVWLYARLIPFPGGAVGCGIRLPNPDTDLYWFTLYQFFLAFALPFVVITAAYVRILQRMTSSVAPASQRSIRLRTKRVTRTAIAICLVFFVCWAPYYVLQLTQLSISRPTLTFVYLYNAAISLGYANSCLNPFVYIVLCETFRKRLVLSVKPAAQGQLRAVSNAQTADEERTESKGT
How it was run: as §1

Human μ-opioid (MOP) = target: T7, Human μ-opioid (MOP) (Homo sapiens, UniProt P35372); assay: Radioligand binding, human μ-opioid (MOP) membranes, FlashPlate, [3H]-Naloxone; conditions: compound at 10 μM; for A7: inhibition of radioligand binding / A7 radioligand binding, percentage inhibition: [3H]-Naloxone; for A7: inhibition of radioligand binding: human MOP membranes
T7 construct: purchased Perkin Elmer Biosignal
T7 sequence (P35372 whole entry): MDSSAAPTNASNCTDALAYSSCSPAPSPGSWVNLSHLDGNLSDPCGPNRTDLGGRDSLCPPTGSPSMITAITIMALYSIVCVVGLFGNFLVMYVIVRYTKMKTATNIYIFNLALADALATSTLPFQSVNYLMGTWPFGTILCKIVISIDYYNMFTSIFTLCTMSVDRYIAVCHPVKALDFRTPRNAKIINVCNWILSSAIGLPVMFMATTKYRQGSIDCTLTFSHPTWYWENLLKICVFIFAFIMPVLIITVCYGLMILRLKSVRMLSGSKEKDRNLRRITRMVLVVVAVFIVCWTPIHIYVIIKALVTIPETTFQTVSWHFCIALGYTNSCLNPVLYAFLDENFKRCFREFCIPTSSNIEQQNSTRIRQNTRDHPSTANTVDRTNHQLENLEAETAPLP
How it was run: as §1

Human neurokinin (NK1) = target: T8, Human neurokinin (NK1) (Homo sapiens, UniProt P25103); assay: Radioligand binding, human neurokinin NK1 membranes, filtration, [125I]-Substance P; conditions: compound at 10 μM; for A8: inhibition of radioligand binding / A8 radioligand binding, percentage inhibition: [125I]-Substance P; for A8: inhibition of radioligand binding: human NK1 membranes
T8 construct: purchased Perkin Elmer Biosignal
T8 sequence (P25103 whole entry): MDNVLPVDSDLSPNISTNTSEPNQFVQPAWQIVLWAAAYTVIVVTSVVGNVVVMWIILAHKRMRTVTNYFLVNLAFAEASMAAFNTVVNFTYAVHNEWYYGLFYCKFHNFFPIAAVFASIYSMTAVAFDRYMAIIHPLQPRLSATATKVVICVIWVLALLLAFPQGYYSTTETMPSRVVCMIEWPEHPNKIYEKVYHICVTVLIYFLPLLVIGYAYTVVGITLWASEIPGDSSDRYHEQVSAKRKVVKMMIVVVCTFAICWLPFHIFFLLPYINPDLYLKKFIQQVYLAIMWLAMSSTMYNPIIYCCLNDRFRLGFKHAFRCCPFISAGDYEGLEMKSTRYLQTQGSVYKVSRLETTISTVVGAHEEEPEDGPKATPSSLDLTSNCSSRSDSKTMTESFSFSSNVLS
How it was run: as §2

[2] = target: T9, Human neuropeptide Y (NPY-Y1) (Homo sapiens, UniProt P25929); assay: Radioligand binding, human neuropeptide Y NPY-Y1 membranes, FlashPlate, [125I]-PYY; conditions: compound at 10 μM; for A9: inhibition of radioligand binding / A9 radioligand binding, percentage inhibition: [125I]-PYY
T9 construct: purchased Perkin Elmer Biosignal
T9 sequence (P25929 1-384): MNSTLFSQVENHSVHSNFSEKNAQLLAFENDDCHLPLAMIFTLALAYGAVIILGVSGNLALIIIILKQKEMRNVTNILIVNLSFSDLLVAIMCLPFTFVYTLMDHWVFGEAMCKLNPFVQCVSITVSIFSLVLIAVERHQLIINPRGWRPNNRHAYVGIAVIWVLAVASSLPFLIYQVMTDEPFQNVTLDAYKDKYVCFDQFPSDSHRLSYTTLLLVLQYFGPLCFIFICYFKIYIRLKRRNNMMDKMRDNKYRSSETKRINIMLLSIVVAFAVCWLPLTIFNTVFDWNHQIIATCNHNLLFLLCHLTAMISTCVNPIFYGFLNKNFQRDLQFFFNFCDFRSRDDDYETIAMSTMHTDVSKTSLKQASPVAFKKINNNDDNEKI
How it was run: as §1

Human opioid (ORL1) = target: T10, Human opioid (ORL1) (Homo sapiens, UniProt P41146); assay: Radioligand binding, human opioid ORL1 membranes, FlashPlate, [125I]-Nociceptin; conditions: compound at 10 μM; for A10: inhibition of radioligand binding / A10 radioligand binding, percentage inhibition: [125I]-Nociceptin
T10 construct: purchased Perkin Elmer Biosignal
T10 sequence (P41146 whole entry): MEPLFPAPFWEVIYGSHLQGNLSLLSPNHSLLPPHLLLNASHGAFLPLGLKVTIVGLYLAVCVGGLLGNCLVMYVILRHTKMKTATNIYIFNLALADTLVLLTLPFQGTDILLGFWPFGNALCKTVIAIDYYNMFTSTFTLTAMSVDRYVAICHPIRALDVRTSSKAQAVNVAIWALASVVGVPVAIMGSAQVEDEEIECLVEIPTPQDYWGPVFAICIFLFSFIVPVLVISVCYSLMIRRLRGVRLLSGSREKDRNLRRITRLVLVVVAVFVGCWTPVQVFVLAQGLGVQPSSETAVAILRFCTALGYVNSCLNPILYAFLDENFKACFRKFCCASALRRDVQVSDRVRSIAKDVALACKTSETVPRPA
How it was run: as §1

Mouse urotensin (mUR2) = target: T11, Mouse urotensin (mUR2) (Mus musculus, UniProt Q8VIH9); assay: Radioligand binding, mouse urotensin mUR2 membranes, FlashPlate, [125I]-Urotensin II; conditions: compound at 10 μM; for A11: inhibition of radioligand binding / A11 radioligand binding, percentage inhibition: [125I]-Urotensin II; for A11: inhibition of radioligand binding: mouse mUR2 membranes
T11 construct: purchased Perkin Elmer Biosignal
T11 sequence (Q8VIH9 1-385): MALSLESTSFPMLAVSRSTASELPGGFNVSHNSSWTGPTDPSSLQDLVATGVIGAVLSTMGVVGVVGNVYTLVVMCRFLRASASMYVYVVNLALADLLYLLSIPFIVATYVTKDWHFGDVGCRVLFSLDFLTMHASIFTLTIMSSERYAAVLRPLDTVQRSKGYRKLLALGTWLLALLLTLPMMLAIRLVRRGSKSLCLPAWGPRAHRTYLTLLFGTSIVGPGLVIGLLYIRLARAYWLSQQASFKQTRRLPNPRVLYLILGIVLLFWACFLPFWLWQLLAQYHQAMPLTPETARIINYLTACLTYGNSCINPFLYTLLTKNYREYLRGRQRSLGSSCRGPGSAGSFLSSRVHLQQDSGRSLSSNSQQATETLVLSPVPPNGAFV
How it was run: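 Cloned mouse urotensin (mUR2) receptor membranes from Perkin Elmer Biosignal were immobilized in FlashPlate microplates using a proprietary coating. Each well got 19.5 μl buffer, then 0.5 μl of DMSO, reference ligand, or compound. Adding 5 μl of [125I]-Urotensin II, diluted to 5× final concentration in binding buffer, started binding. Plates were sealed with TopSeal-A and incubated 1 hour at room temperature in the dark. Wells were counted for 30 seconds each on a TopCount after a 60-second delay, and percentage inhibition was calculated.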

CO[C@H]1[C@H](O)[C@@H](COCc2ccc3ccccc3c2)OC(OCc2ccc(-c3ccccc3)cc2)[C@@H]1NC(=O)CCNC(=N)N (stereo partly shown) [compound 56]
A1 radioligand binding inhibition (Human δ-opioid (DOP); human δ-opioid (DOP) membranes): − (“−” indicates less than 50% inhibition at 10 μM) | A2 radioligand binding inhibition (Human κ-Opioid (KOP); human κ-opioid (KOP) membranes): − (“−” indicates less than 50% inhibition at 10 μM) | A3 radioligand binding inhibition (Human Melanocortin (MC3); human melanocortin MC3 membranes): − (“−” indicates less than 50% inhibition at 10 μM) | A4 radioligand binding inhibition (Human Melanocortin (MC4); human melanocortin MC4 membranes): − (“−” indicates less than 50% inhibition at 10 μM) | A5 radioligand binding inhibition (Human melanocortin (MC5); human melanocortin MC5 membranes): + (“+” indicates greater than 50% inhibition at 10 μM) | A6 radioligand binding inhibition ([1]; human MCH1 membranes): − (“−” indicates less than 50% inhibition at 10 μM) | A7 radioligand binding inhibition (Human μ-opioid (MOP); human μ-opioid (MOP) membranes): + (“+” indicates greater than 50% inhibition at 10 μM) | A8 radioligand binding inhibition (Human neurokinin (NK1); human neurokinin NK1 membranes): + (“+” indicates greater than 50% inhibition at 10 μM) | A9 radioligand binding inhibition ([2]; human NPY-Y1 membranes): − (“−” indicates less than 50% inhibition at 10 μM) | A10 radioligand binding inhibition (Human opioid (ORL1); human ORL1 membranes): − (“−” indicates less than 50% inhibition at 10 μM) | A11 radioligand binding inhibition (Mouse urotensin (mUR2); mouse urotensin mUR2 membranes): − (“−” indicates less than 50% inhibition at 10 μM)

NCCCC(=O)NC1C(OCc2ccc3ccccc3c2)OC(COCc2ccc3ccccc3c2)C(O)C1OCc1ccccc1 (single isomer, unassigned) [compound 465]
A1: inhibition of radioligand binding (Human δ-opioid (DOP)): − (“−” indicates less than 50% inhibition at 10 μM) | A2: inhibition of radioligand binding (Human κ-Opioid (KOP)): − (“−” indicates less than 50% inhibition at 10 μM) | A3: inhibition of radioligand binding (Human Melanocortin (MC3); 10 µM): − (“−” indicates less than 50% inhibition at 10 μM) | A4: inhibition of radioligand binding (Human Melanocortin (MC4); 10 µM): − (“−” indicates less than 50% inhibition at 10 μM) | A5: inhibition of radioligand binding (Human melanocortin (MC5)): + (“+” indicates greater than 50% inhibition at 10 μM) | A6: inhibition of radioligand binding ([1]; 10 µM): − (“−” indicates less than 50% inhibition at 10 μM) | A7: inhibition of radioligand binding (Human μ-opioid (MOP)): − (“−” indicates less than 50% inhibition at 10 μM) | A8: inhibition of radioligand binding (Human neurokinin (NK1)): + (“+” indicates greater than 50% inhibition at 10 μM) | A9: inhibition of radioligand binding ([2]; human NPY-Y1 membranes): − (“−” indicates less than 50% inhibition at 10 μM) | A10: inhibition of radioligand binding (Human opioid (ORL1); human ORL1 membranes, 10 µM): − (“−” indicates less than 50% inhibition at 10 μM) | A11: inhibition of radioligand binding (Mouse urotensin (mUR2)): − (“−” indicates less than 50% inhibition at 10 μM)

N=C(N)NCC(=O)NC1C(OCc2ccc(-c3ccccc3)cc2)OC(COCc2ccc(Cl)cc2)C(O)C1OCc1ccc2ccccc2c1 (stereo not shown) [compound 404]
A1: inhibition of radioligand binding (Human δ-opioid (DOP)): − (“−” indicates less than 50% inhibition at 10 μM) | A2: inhibition of radioligand binding (Human κ-Opioid (KOP)): − (“−” indicates less than 50% inhibition at 10 μM) | A3: inhibition of radioligand binding (Human Melanocortin (MC3)): + (“+” indicates greater than 50% inhibition at 10 μM) | A4: inhibition of radioligand binding (Human Melanocortin (MC4)): + (“+” indicates greater than 50% inhibition at 10 μM) | A5: inhibition of radioligand binding (Human melanocortin (MC5)): + (“+” indicates greater than 50% inhibition at 10 μM) | A6: inhibition of radioligand binding [1]: − (“−” indicates less than 50% inhibition at 10 μM) | A7: inhibition of radioligand binding (Human μ-opioid (MOP)): − (“−” indicates less than 50% inhibition at 10 μM) | A8: inhibition of radioligand binding (Human neurokinin (NK1)): + (“+” indicates greater than 50% inhibition at 10 μM) | A9: inhibition of radioligand binding ([2]; human NPY-Y1 membranes): − (“−” indicates less than 50% inhibition at 10 μM) | A10: inhibition of radioligand binding (Human opioid (ORL1); human ORL1 membranes): + (“+” indicates greater than 50% inhibition at 10 μM) | A11: inhibition of radioligand binding (Mouse urotensin (mUR2)): − (“−” indicates less than 50% inhibition at 10 μM)

COC[C@H]1OC(OCc2ccc3ccccc3c2)[C@H](NC(=O)CCCN)[C@@H](OCc2cccc(O)c2)[C@@H]1O (stereo partly shown) [compound 134]
A1 radioligand binding, percentage inhibition (Human δ-opioid (DOP)): − (“−” indicates less than 50% inhibition at 10 μM) | A2 radioligand binding, percentage inhibition (Human κ-Opioid (KOP)): − (“−” indicates less than 50% inhibition at 10 μM) | A3 radioligand binding, percentage inhibition (Human Melanocortin (MC3)): − (“−” indicates less than 50% inhibition at 10 μM) | A4 radioligand binding, percentage inhibition (Human Melanocortin (MC4)): − (“−” indicates less than 50% inhibition at 10 μM) | A5 radioligand binding, percentage inhibition (Human melanocortin (MC5)): − (“−” indicates less than 50% inhibition at 10 μM) | A6 radioligand binding, percentage inhibition [1]: − (“−” indicates less than 50% inhibition at 10 μM) | A7 radioligand binding, percentage inhibition (Human μ-opioid (MOP)): + (“+” indicates greater than 50% inhibition at 10 μM) | A8 radioligand binding, percentage inhibition (Human neurokinin (NK1)): − (“−” indicates less than 50% inhibition at 10 μM) | A9 radioligand binding, percentage inhibition [2]: − (“−” indicates less than 50% inhibition at 10 μM) | A10 radioligand binding, percentage inhibition (Human opioid (ORL1)): − (“−” indicates less than 50% inhibition at 10 μM) | A11 radioligand binding, percentage inhibition (Mouse urotensin (mUR2)): − (“−” indicates less than 50% inhibition at 10 μM)

COC1O[C@H](COCC(=O)O)[C@@H](O)[C@H](OCc2ccccc2)[C@H]1NC(=O)c1cnc[nH]1 (stereo partly shown) [compound 128]
A1 radioligand binding, percentage inhibition (Human δ-opioid (DOP)): − (“−” indicates less than 50% inhibition at 10 μM) | A2 radioligand binding, percentage inhibition (Human κ-Opioid (KOP)): − (“−” indicates less than 50% inhibition at 10 μM) | A3 radioligand binding, percentage inhibition (Human Melanocortin (MC3)): − (“−” indicates less than 50% inhibition at 10 μM) | A4 radioligand binding, percentage inhibition (Human Melanocortin (MC4)): − (“−” indicates less than 50% inhibition at 10 μM) | A5 radioligand binding, percentage inhibition (Human melanocortin (MC5)): − (“−” indicates less than 50% inhibition at 10 μM) | A6 radioligand binding, percentage inhibition [1]: − (“−” indicates less than 50% inhibition at 10 μM) | A7 radioligand binding, percentage inhibition (Human μ-opioid (MOP)): − (“−” indicates less than 50% inhibition at 10 μM) | A8 radioligand binding, percentage inhibition (Human neurokinin (NK1)): + (“+” indicates greater than 50% inhibition at 10 μM) | A9 radioligand binding, percentage inhibition [2]: − (“−” indicates less than 50% inhibition at 10 μM) | A10 radioligand binding, percentage inhibition (Human opioid (ORL1)): − (“−” indicates less than 50% inhibition at 10 μM) | A11 radioligand binding, percentage inhibition (Mouse urotensin (mUR2)): − (“−” indicates less than 50% inhibition at 10 μM)
